Consider 19 molecules from patent publication US8252781B2, “1,2-diazetidin-3-one derivatives and drugs containing same” (Kowa Company, Ltd., priority 2008, dated 2012).

Common to all, as to type: biochemical
One test has as its target T1, human 11β-HSD1 (Homo sapiens, UniProt P28845).
T1 construct: The obtained PCR products of about 0.9 kbp, 1.2 kbp, and 0.9 kbp were subcloned into an expression vector pcDNA3.1+/Zeo; expressed in transfected cells
The test is described as follows: Enzyme inhibitory activity, human 11β-HSD1 (lysate of stably expressing HEK293 cells, cortisol by competitive ELISA). The conditions noted are these: Table 1; human 11β-HSD1, cell lysate, 37° C. for 1 hour; read-out: h HSD1 in vitro assay (IC50 uM). The procedure, abridged: (§1)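 Sonicated lysates of stably transfected cells (diluted to 0.1–0.4 mg/mL before addition) reacted for 1 h at 37 °C in pH 7.4 Tris/sucrose/EGTA/EDTA/MgCl2 buffer with 100 nmol/L cortisone or cortisol and 400 μmol/L NADPH or NAD+, then were heat-stopped at 95 °C. Inhibition rate = 100 minus residual activity.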
A general note: An ELISA detects its analyte on a solid surface through an enzyme-linked reagent.

The next test deals with T2, human 11β-HSD2 (Homo sapiens, UniProt P80365).
T2 construct: The obtained PCR products of about 0.9 kbp, 1.2 kbp, and 0.9 kbp were subcloned into an expression vector pcDNA3.1+/Zeo; expressed in transfected cells
T2 sequence (P80365 1-405): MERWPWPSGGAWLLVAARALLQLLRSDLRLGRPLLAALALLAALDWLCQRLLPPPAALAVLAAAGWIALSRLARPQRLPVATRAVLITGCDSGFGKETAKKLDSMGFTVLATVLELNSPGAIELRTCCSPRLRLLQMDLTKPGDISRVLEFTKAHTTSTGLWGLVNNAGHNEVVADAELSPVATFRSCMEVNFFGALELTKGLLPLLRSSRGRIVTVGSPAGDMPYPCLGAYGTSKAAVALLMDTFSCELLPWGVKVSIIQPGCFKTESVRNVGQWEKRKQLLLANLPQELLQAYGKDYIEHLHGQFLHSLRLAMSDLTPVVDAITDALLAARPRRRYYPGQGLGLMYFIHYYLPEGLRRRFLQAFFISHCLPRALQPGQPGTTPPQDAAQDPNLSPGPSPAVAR
Nature of the test: Enzyme inhibitory activity, human 11β-HSD2 (lysate of stably expressing HEK293 cells, cortisol by competitive ELISA). The conditions noted are these: Table 1; human 11β-HSD2, cell lysate, 37° C. for 1 hour; read-out: h HSD2 in vitro assay (IC50 uM). As for the experimental part: 1. Human 11β-HSD1-, Human 11β-HSD2- and Mouse 11β-HSD1-Gene Clonings and Establishment of Stably Expressing Cells
Human 11β-HSD1-, human 11β-HSD2-, and mouse 11β-HSD1-gene clonings were conducted using as a template a reverse transcription product of human-liver RNA, human-kidney RNA (CELL APPLICATIONS), and mouse-kidney RNA respectively, by means of PCR cloning with reference to nucleotide sequences of Genbank Accession Nos. NM_005525, NM_000196, and NM_008288. The obtained PCR products of about 0.9 kbp, 1.2 kbp, and 0.9 kbp were subcloned into an expression vector pcDNA3.1+/Zeo (Invitrogen).
Human 11β-HSD1- and human 11β-HSD2-expressing vectors were transfected into human kidney-derived cell line, HEK293 cells, using a transfection reagent, jet PEI (Funakoshi). Mouse 11β-HSD1 was transfected to Chinese hamster ovary-derived cell line, CHO-K1 cells. Selection was conducted with 200-400 μg/mL of zeocine (Invitrogen) to provide stably expressing-cell clones. The stably expressing cells were suspended in buffer solution A (20 mmol/L Tris-HCl, pH 7.4, 250 mmol/L sucrose, 1 mmol/L EGTA, 1 mmol/L EDTA, 1 mmol/L MgCl2), sonicated, and then stored at −80° C.
2. Assay of Enzyme Inhibitory Activity
An enzymatic reaction was conducted using a polystyrene 96-well plate. Each well was added with 1 μL of a test agent dissolved in DMSO and then diluted (0.003 to 3 mmol/L), and further added with 10 μL of cell lysate diluted to a concentration of 0.1 mg/mL to 0.4 mg/mL. Next, 90 μL of buffer solution A containing substrate (100 nmol/L cortisone or cortisol) and coenzyme (400 μmol/L NADPH or NAD+) was added and the mixture was incubated at 37° C. for 1 hour. The enzymatic reaction was stopped by treating at 95° C. for 3 minutes. Cortisol that was present in the reaction solution was determined by a competitive ELISA shown below.
Anti-rabbit IgG antibody (Chemi-con) diluted to 2 μg/mL with carbonate buffer solution (pH 9.6) was added in 100 μL each to a 96-well immuno plate (Nunc) and immobilized by an incubation at 4° C. overnight. 50 μL of enzymatic reaction solution was put onto the plates, and further, anti-cortisol antibody (Cosmo Bio) and HRP-labeled cortisol (Cosmo Bio), diluted with buffer solution B (25 mmol/L Tris-HCl pH 7.4, 137 mmol/L NaCl, 2.68 mmol/L KCl), were added in 50 μL respectively and incubated at 4° C. overnight. After washed three times with buffer solution B containing 0.05% Tween 20, the plates were allowed to develop color by adding 100 μL of color reagent, TMB (Moss). The color reaction was stopped by 25 μL of 1 mol/L sulfuric acid and the absorbance was determined at 450 nm with a microplate reader (Molecular Device, VersaMax).
The values of human 11β-HSD1, human 11β-HSD2, and mouse 11β-HSD1 activities were subtracted from 100, and the resultant values were regarded as the respective 11β-HSD inhibition rates of example compounds. […] The comparison of human 11β-HSD1 and human 11β-HSD2 inhibiting activities is shown in Table 1, and the comparison of human 11β-HSD1 and mouse 11β-HSD1 inhibiting activities is shown in Table 2.

The target in a further test is T3, mouse 11β-HSD1 (Mus musculus, UniProt P50172).
T3 construct: The obtained PCR products of about 0.9 kbp, 1.2 kbp, and 0.9 kbp were subcloned into an expression vector pcDNA3.1+/Zeo; expressed in transfected cells
T3 sequence (P50172 whole entry): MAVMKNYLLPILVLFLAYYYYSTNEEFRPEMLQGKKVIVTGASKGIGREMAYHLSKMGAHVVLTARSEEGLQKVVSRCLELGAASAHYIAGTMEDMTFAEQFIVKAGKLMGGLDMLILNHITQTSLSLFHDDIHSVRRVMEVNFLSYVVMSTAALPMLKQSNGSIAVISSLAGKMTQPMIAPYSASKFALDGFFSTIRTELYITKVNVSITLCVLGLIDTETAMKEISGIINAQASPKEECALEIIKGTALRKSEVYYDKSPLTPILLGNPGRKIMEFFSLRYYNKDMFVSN
The test is described as follows: Enzyme inhibitory activity, mouse 11β-HSD1 (lysate of stably expressing CHO-K1 cells, cortisol by competitive ELISA). The conditions noted are these: Table 2; mouse 11β-HSD1, cell lysate, 37° C. for 1 hour; read-out: m HSD1 in vitro assay (IC50 uM). The procedure, abridged:
as §1

Each structure is given as a SMILES string.

T1 sequence (P28845 whole entry): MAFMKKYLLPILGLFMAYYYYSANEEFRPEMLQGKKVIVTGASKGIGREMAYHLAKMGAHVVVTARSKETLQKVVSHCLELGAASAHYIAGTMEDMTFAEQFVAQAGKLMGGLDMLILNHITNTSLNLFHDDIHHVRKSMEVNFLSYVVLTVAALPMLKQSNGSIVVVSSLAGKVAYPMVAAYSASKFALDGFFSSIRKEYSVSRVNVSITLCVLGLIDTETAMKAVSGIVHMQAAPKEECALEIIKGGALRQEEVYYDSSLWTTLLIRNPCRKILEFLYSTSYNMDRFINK

As to `CC1(C)C(=O)N(C2CCCCCCC2)N1Cc1cc(F)ccc1Cl` [Example 77, 1-(2-chloro-5-fluorobenzyl)-2-cyclooctyl-4,4-dimethyl-1,2-diazetidin-3-one], the half-inhibitory concentration (IC50) (usually the midpoint of a concentration-inhibition curve) came to 0.016 µM on human 11β-HSD1, 2 µM on human 11β-HSD2 and 0.092 µM at mouse 11β-HSD1.
Consider `CC1(C)C(=O)N(C2CCCCCCC2)N1Cc1cccc(Cl)c1Cl` [Example 74, 2-cyclooctyl-1-(2,3-dichlorobenzyl)-4,4-dimethyl-1,2-diazetidin-3-one], for which the IC50 was 0.046 µM on human 11β-HSD1, 3 to 30 µM on human 11β-HSD2 and 0.13 µM at mouse 11β-HSD1.
Consider `CC1(C)C(=O)N(C2CCCCCCC2)N1Cc1ccc(F)cc1Cl` [Example 76, 1-(2-chloro-4-fluorobenzyl)-2-cyclooctyl-4,4-dimethyl-1,2-diazetidin-3-one], for which the values for the half-inhibitory concentration (IC50) at human 11β-HSD1, at human 11β-HSD2 and at mouse 11β-HSD1 were 0.031 µM, 4.8 µM and 0.14 µM, respectively.
The like results for `CC1(C)C(=O)N([C@H]2C3CC4CC2C[C@](Cl)(C4)C3)N1c1cccc(Cl)c1Cl` [Example 251, trans-2-(5-chloroadamantan-2-yl)-1-(2,3-dichlorophenyl)-4,4-dimethyl-1,2-diazetidin-3-one] were, in that order, 0.03 µM, 3 to 30 µM and 0.61 µM.
For the molecule `CC1(C)C(=O)N(C2CCCCCCC2)N1c1cccc2ccccc12` [Example 222, 2-cyclooctyl-4,4-dimethyl-1-(naphthalen-1-yl)-1,2-diazetidin-3-one], the IC50 at human 11β-HSD1 amounted to 0.019 µM; on human 11β-HSD2 it was 5.5 µM; on mouse 11β-HSD1, 0.087 µM.
Turning to `CC1(C)C(=O)N(C2C3CC4CC(C3)CC2C4)N1Cc1ccc(Cl)cc1Cl` (stereo not drawn) [Example 52, 1-(2,4-dichlorobenzyl)-4,4-dimethyl-2-(adamantan-2-yl)-1,2-diazetidin-3-one], the IC50 at human 11β-HSD1 turned out to be 0.078 µM; on human 11β-HSD2, 9.5 µM; at mouse 11β-HSD1, 0.16 µM.
Consider `CSc1ccccc1CN1N(C2C3CC4CC(C3)CC2C4)C(=O)C1(C)C` (stereo not drawn) [Example 60, 4,4-dimethyl-1-[2-(methylthio)benzyl]-2-(adamantan-2-yl)-1,2-diazetidin-3-one], for which the IC50 was 0.0082 µM on human 11β-HSD1, 1.1 µM on human 11β-HSD2 and 0.15 µM on mouse 11β-HSD1.
Consider `CC1(C)C(=O)N(C2C3CC4CC(C3)CC2C4)N1c1cccc2ccccc12` (stereo not drawn) [Example 212, 4,4-dimethyl-1-(naphthalen-1-yl)-2-(adamantan-2-yl)-1,2-diazetidin-3-one], for which the concentration for half-maximal inhibition (IC50) was 0.032 µM on human 11β-HSD1, 3 to 30 µM at human 11β-HSD2 and 0.089 µM on mouse 11β-HSD1.
For `CC1(C)C(=O)N(C2C3CC4CC(C3)CC2C4)N1c1ccccc1[N+](=O)[O-]` (stereo not drawn) [Example 188, 4,4-dimethyl-1-(2-nitrophenyl)-2-(adamantan-2-yl)-1,2-diazetidin-3-one], the IC50 is 0.082 µM on human 11β-HSD1, > 30 µM at human 11β-HSD2 and 0.76 µM at mouse 11β-HSD1.
The corresponding values for `CC1(C)C(=O)N(C2C3CC4CC(C3)CC2C4)N1Cc1ccccc1I` (stereo not drawn) [Example 40, 1-(2-iodobenzyl)-4,4-dimethyl-2-(adamantan-2-yl)-1,2-diazetidin-3-one] are 0.012 µM, 10 µM and 0.084 µM.
As for `CC1(C)C(=O)N(C2C3CC4CC(C3)CC2C4)N1Cc1ccc(F)cc1C(F)(F)F` (stereo not drawn) [Example 48, 1-[4-fluoro-2-(trifluoromethyl)benzyl]-4,4-dimethyl-2-(adamantan-2-yl)-1,2-diazetidin-3-one], the half-inhibitory concentration (IC50) is 0.031 µM on human 11β-HSD1, > 30 µM on human 11β-HSD2 and 0.5 µM on mouse 11β-HSD1.
As to `COc1ccccc1N1N([C@H]2C3CC4CC2C[C@](Cl)(C4)C3)C(=O)C1(C)C` [Example 250, trans-2-(5-chloroadamantan-2-yl)-1-(2-methoxyphenyl)-4,4-dimethyl-1,2-diazetidin-3-one], the values for the IC50 at human 11β-HSD1, on human 11β-HSD2 and on mouse 11β-HSD1 were 0.042 µM, > 30 µM and 0.13 µM, respectively.
On to `CCc1ccccc1CN1N(C2C3CC4CC(C3)CC2C4)C(=O)C1(C)C` (stereo not drawn) [Example 50, 1-(2-ethylbenzyl)-4,4-dimethyl-2-(adamantan-2-yl)-1,2-diazetidin-3-one], for which the half-inhibitory concentration (IC50) at human 11β-HSD1 stood at 0.042 µM; on human 11β-HSD2 it was 6.6 µM; at mouse 11β-HSD1 it was 0.16 µM.
Regarding `CC1(C)C(=O)N([C@H]2C3CC4CC2C[C@@](C(=O)O)(C4)C3)N1c1cccc2ccccc12` [Example 272, cis-4-[2-(naphthalen-1-yl)-3,3-dimethyl-4-oxo-1,2-diazetidin-1-yl]adamantane-1-carboxylic acid], the half-maximal inhibitory concentration (IC50) at human 11β-HSD1 was 0.05 µM; on human 11β-HSD2, > 30 µM; at mouse 11β-HSD1, 0.9 µM.
Consider `CC1(C)C(=O)N(C2C3CC4CC(C3)CC2C4)N1Cc1ccccc1Br` (stereo not drawn) [Example 39, 1-(2-bromobenzyl)-4,4-dimethyl-2-(adamantan-2-yl)-1,2-diazetidin-3-one], for which the results for the IC50 at human 11β-HSD1, on human 11β-HSD2 and at mouse 11β-HSD1 were 0.015 µM, 3 µM and 0.04 µM, respectively.
In the case of `CC1(C)C(=O)N([C@H]2C3CC4CC2C[C@](O)(C4)C3)N1c1ccccc1Cl` [Example 227, trans-1-(2-chlorophenyl)-2-(5-hydroxyadamantan-2-yl)-4,4-dimethyl-1,2-diazetidin-3-one], the concentration for half-maximal inhibition (IC50) at human 11β-HSD1 is 0.023 µM; on human 11β-HSD2, 3 to 30 µM; on mouse 11β-HSD1 it was 0.95 µM.
For the molecule `CC1(C)C(=O)N(C2C3CC4CC(C3)CC2C4)N1Cc1cc(F)ccc1Cl` (stereo not drawn) [Example 41, 1-(2-chloro-5-fluorobenzyl)-4,4-dimethyl-2-(adamantan-2-yl)-1,2-diazetidin-3-one], the figures for the 50% inhibitory concentration (IC50) on human 11β-HSD1, at human 11β-HSD2 and at mouse 11β-HSD1 were 0.023 µM, 3.2 µM and 0.13 µM, respectively.
As for `COCOc1ccccc1N1N(C2C3CC4CC(C3)CC2C4)C(=O)C1(C)C` (stereo not drawn) [Example 218, 1-[2-(methoxymethoxy)phenyl]-4,4-dimethyl-2-(adamantan-2-yl)-1,2-diazetidin-3-one], the IC50 on human 11β-HSD1 was 0.81 µM; at human 11β-HSD2, > 30 µM; at mouse 11β-HSD1 it was 0.57 µM.
For the molecule `CC1(C)C(=O)N(C2C3CC4CC(C3)CC2C4)N1c1cccc(Cl)c1Cl` (stereo not drawn) [Example 206, 1-(2,3-dichlorophenyl)-4,4-dimethyl-2-(adamantan-2-yl)-1,2-diazetidin-3-one], the IC50 is 0.0061 µM on human 11β-HSD1, 3 to 30 µM on human 11β-HSD2 and 0.44 µM on mouse 11β-HSD1.
